Test results: article PMC6721120, “Inhibitory Effects of Ginsenoside Ro on the Growth of B16F10 Melanoma via Its Metabolites” (Molecules, 2019)
Converted amounts (≈) assume the structure as drawn. Like-named read-outs stand apart in the source and are kept apart here.

Legend:
[1] = HPLC-MS determination of Ro metabolites in plasma of tumour-bearing mice; type: in vivo, C57BL/6J mice; details: plasma after 15 days Ro 25 mg/kg intraperitoneal; for detection in plasma of Ro-treated tumour-bearing mice: HPLC-MS
Protocol: B16F10 cells were cultured in DMEM containing 10% FBS. […] Normal and model mice were administered normal saline. […] The tumour inhibition rate was calculated.
Identification of the metabolites of Ro was done using the same HPLC Trap MS system as previously described. Briefly, an aliquot of 60 μL plasma samples was removed from the −80 °C storage and thawed under ambient temperature and mixed vigorously with 300 μL cold methanol. The supernatant was placed in a centrifuge tube (1500 μL) after 10 min of centrifugation at 10,000 rpm. The precipitate was washed three times using 100 μL cold methanol. All of the supernatants were combined and dried under nitrogen flow at ambient temperature. The residue was dissolved using 80 μL methanol (3 min of vortexing), and the solution was diluted in 240 μL pure water. The mixture was centrifuged at 10,000 rpm for 10 min. All of the supernatant was loaded onto a flash column (25 × 2 mm id, Chromolith; Merck, Darmstadt, Germany). This flash column was connected to an analytical column (50 × 2 mm id, Chromolith; Merck) for HPLC-MS analysis. The separation was conducted using a gradient mobile phase consisting of water (A, containing 0.01% ammonium hydroxide) and acetonitrile (B). The program of the mobile phase was as follows: 10% B for the first 5 min; then a linear gradient of 10–15% B for 5–7 min, 15–40% B for 7–40 min, and 40–70% B for 40–45 min; this composition was maintained for 45–60 min and then returned to the initial condition for 5 min. The flow rate was 0.2 mL/min. The method for the Trap MS detection was the same as previously described.

B16F10 melanoma tumour = experiment: Tumour xenograft experiment in B16F10 tumour-bearing mice; type: in vivo, C57BL/6J mice; details: 15 days; for tumour growth (tumour volume): R1 25, IVa 25, E 5, CTX 20 mg/kg intraperitoneal, vs model group, p < 0.05; for mean tumour weight: model group 1.50 g
Protocol: (§1) An anti-tumour assay was conducted in a mouse xenograft model. B16F10 cells were cultured in DMEM containing 10% FBS. After the collection of cells, the cells were re-suspended in normal saline to the appropriate concentrations. Next, 0.1 mL of the B16F10 cell suspension (1 × 10^6 cells) was subcutaneously injected via the right axillary region of the C57BL/6J mice. The tumour-bearing mice were randomly divided into three groups (n = 6/group): model control group, positive control group, and Ro (25 mg/kg) administration group. […] Normal and model mice were administered normal saline. The mice in the positive control group received CTX (20 mg/kg). The successive intraperitoneal injection of drugs into the mice from the day after tumour inoculation and the body weights were monitored every 2 days. After 15 days, all mice were sacrificed, and tumours were taken out and measured as previously described. The thymus and spleen were also removed and weighed to calculate the thymus and spleen indices. The tumour inhibition rate was calculated. The blood samples were collected from the retrobulbar vessels and added into tubes containing heparin. Subsequently, plasma samples were prepared by centrifugation for 10 min at 3800 rpm and stored at −80 °C for HPLC-MS analysis.
A xenograft experiment was performed using the same method as described in Section 2.2. Briefly, after the mice were inoculated with tumour cells, they were randomly divided into […] (n = 6/group): model control group, positive control group (CTX, 20 mg/kg), R1 (25 mg/kg), IVa (25 mg/kg), and E (5 mg/kg) administration groups. […] Normal and model mice were administered normal saline. Drugs were intraperitoneally injected into the mice for 15 consecutive days. Tumour volumes were measured every 2 days, and tumour growth curves were plotted. At the end of the experiment, the mice were sacrificed, and the tumour weight and tumour growth inhibition rates were calculated.

[2] = Protocol: as §1
B16F10 melanoma cells = experiment: MTT cell viability assay; type: cell-based; details: 24 h; for IC50: Mus musculus, B16-F10, MTT, read-out: half maximal inhibitory concentration (IC50)
Protocol: In this study, Ro was dissolved in dimethyl sulfoxide (DMSO) and diluted in DMEM and then filtered using a 0.22 μm membrane. The final concentration of DMSO in cell culture medium was 0.1%, and 0.1% DMSO-treated cells were used as controls. The effect of Ro on B16F10 cell growth in vitro was performed using the MTT assay. Briefly, exponentially growing B16F10 (1 × 10^4 cells/well) cells were seeded onto 96-well plates and incubated for 24 h in complete medium. After 24 h incubation, the cells were treated with various concentrations of Ro (0, 1, 3, 10, 30, 100 μg/mL) for 24 h, and MTT (0.5%, 20 μL) was then added to each well and incubated for an additional 4 h at 37 °C. The formazan crystals were dissolved in DMSO (150 μL), and the absorbance at 490 nm was measured using a microplate reader (BioTek Epoch; BioTek, Winooski, VT, USA)
The metabolites (standard substance) of Ro were dissolved in the same manner as Ro. Briefly, IVa, R1, and E were dissolved in dimethyl sulfoxide (DMSO), diluted in DMEM, and then filtered using a 0.22 μm membrane. The final concentration of DMSO in cell culture medium was 0.1%, and 0.1% DMSO-treated cells were used as controls. The effects of IVa, R1, and E on B16F10 cell growth were evaluated using the MTT assay as previously described. The cells were treated with various concentrations of IVa (0, 1, 3, 10, 30, 100 μg/mL), R1 (0, 5, 10, 20, 30, 40 μg/mL), and E (0, 2, 4, 6 μg/mL) for 24 h. After incubation, MTT (0.5%, 20 μL) was added and incubated for 4 h at 37 °C. Then the supernatants were carefully removed, and 150 μL DMSO was added to each well. After 10 min of incubation and vibration, the absorbance was read at a wavelength of 490 nm. IC50 values were calculated using Probit Analysis with SPSS 22.0 (SPSS Inc., Chicago, IL, USA).

[3] = system: human umbilical vein endothelial cells (HUVECs); experiment: Tube formation assay on Matrigel; type: cell-based
Protocol: The tube formation assay was performed as previously described with some modifications. Matrigel (BD Biosciences, San Jose, CA, USA) was thawed overnight at 4 °C. Next, 50 μL Matrigel was coated on each well of the pre-chilled 96-well plates and then incubated at 37 °C for 1 h. HUVECs (5 × 10^4 cells/well) were seeded on the Matrigel and treated with various concentrations of Ro (0, 1, 3, 10, 30, 100 μg/mL), R1 (0, 5, 10, 20, 30, 40 μg/mL), IVa (0, 1, 3, 10, 30, 100 μg/mL), and E (0, 2, 4, 6, 8, 10 μg/mL). After incubation for 5 h, the formation of HUVEC tubular structures was captured using a microscope (Nikon eclipse Ti; Nikon, Tokyo, Japan). The tube length was quantified using Image-Pro Plus 6.0 software.

Haemolysis test = type: cell-based, Sprague Dawley rats; details: Sprague-Dawley, rat, isolated erythrocytes (2% haematocrit suspension), 37 °C, 60 min, read-out: Haemolysis Rate (%)
Protocol: (§2) To evaluate the haemocompatibility of Ro, the haemolysis test was performed as previously described. Arterial blood was obtained from healthy Sprague Dawley rats. Then erythrocytes were separated from the plasma and lymphocytes by centrifugation (3000 rpm, 5 min) at 4 °C, washed three times with normal saline, and suspended in normal physiological saline at a haematocrit of 2%. Erythrocytes were used immediately after isolation. Next, 2.5 mL erythrocyte suspension and 2.5 mL medicated saline solution were added to a 10 mL centrifuge tube. The final concentrations of Ro were 1, 3, 10, 30, and 100 μg/mL. The negative and positive controls were normal physiological saline and 0.2% Triton X-100, respectively. The samples were incubated for a specific time period at 37 °C for 60 min. Next, the tube was centrifuged at 3000 rpm for 5 min. Finally, the optical density (OD) was obtained at a wavelength of 545 nm. Three parallel samples were laid in each group. The mean value of the three samples was obtained as the group OD value. The HR was expressed as the percentage and calculated according to the equation:HR = (ODt − ODn)/(ODp − ODn) × 100%,(1) where ODt indicates the OD value of the tested group, and ODn and ODp are the OD values of the negative and positive control groups, respectively. A haemolysis rate less than 5% is regarded as a nontoxic effect level.

erythrocytes = experiment: Haemolysis test; type: cell-based, Sprague Dawley rats; details: all concentrations up to 100 μg/mL
Protocol: as §2

[4] = after 15 days intraperitoneal, CTX 20 mg/kg, Ro 25 mg/kg
[5] = 5 h incubation, IVa 1–100, R1 5–40, E 2–10 μg/mL

Compound: Glycosyl oleanolate
- detection in plasma of Ro-treated tumour-bearing mice [1]: not detected

Compound: O=P1(N(CCCl)CCCl)NCCCO1 (centres unmarked) [CTX, cyclophosphamide, reference compound]
- tumour growth (tumour volume) (B16F10 melanoma tumour): significantly suppressed tumour growth
- Organ Indices Spleen [2, 4]: 2.98 ± 0.86 ×100, mg/g
- Organ Indices Thymus [2, 4]: 0.56 ± 0.09 ×100, mg/g
- Weight (g) After ([2]; body weight after 15 days intraperitoneal, CTX 20 mg/kg, Ro 25 mg/kg): 22.27 ± 1.02 g
- Weight (g) Before ([2]; body weight before treatment, CTX 20 mg/kg, Ro 25 mg/kg): 22.29 ± 0.85 g

Compound: CC1(C)CC[C@]2(C(=O)O[C@@H]3O[C@H](CO)[C@@H](O)[C@H](O)[C@H]3O)CC[C@]3(C)C(=CC[C@@H]4[C@@]5(C)CC[C@H](O[C@@H]6O[C@H](C(=O)O)[C@@H](O)[C@H](O)[C@H]6O)C(C)(C)[C@@H]5CC[C@]43C)[C@@H]2C1 [IVa, chikusetsusaponin IVa]
- viability (B16F10 melanoma cells; 100 µg/mL): slightly decreased
- cytotoxic effects (B16F10 melanoma cells; 1–30 µg/mL): no cytotoxic effects
- tumour inhibition rate (B16F10 melanoma tumour; 25 mg/kg intraperitoneal): 64.7%
- mean tumour weight (B16F10 melanoma tumour; 25 mg/kg intraperitoneal): 0.53 g
- tumour growth (tumour volume) (B16F10 melanoma tumour): significantly suppressed tumour growth
- HUVEC tube formation [3, 5]: markedly inhibited

Compound: CC1(C)CC[C@]2(C(=O)O)CC[C@]3(C)C(=CC[C@@H]4[C@@]5(C)CC[C@H](O[C@@H]6O[C@H](C(=O)O)[C@@H](O)[C@H](O)[C@H]6O[C@@H]6O[C@H](CO)[C@@H](O)[C@H](O)[C@H]6O)C(C)(C)[C@@H]5CC[C@]43C)[C@@H]2C1 [R1, zingibroside R1]
- IC50 (B16F10 melanoma cells): 24.5 mg/L (≈ 30.8 µM)
- tumour inhibition rate (B16F10 melanoma tumour; 25 mg/kg intraperitoneal): 46.6%
- mean tumour weight (B16F10 melanoma tumour; 25 mg/kg intraperitoneal): 0.80 g
- tumour growth (tumour volume) (B16F10 melanoma tumour): significantly suppressed tumour growth
- HUVEC tube formation [3, 5]: markedly inhibited
- plasma signal intensity of R1 relative to E [1]: ~100 fold
- plasma signal intensity of R1 relative to IVa [1]: ~10 fold
- plasma signal intensity of R1 relative to Ro [1]: approximately two-fold
- detection in plasma of Ro-treated tumour-bearing mice [1]: most abundant metabolite in the plasma

Compound: CC1(C)CC[C@]2(C(=O)O)CC[C@]3(C)C(=CC[C@@H]4[C@@]5(C)CC[C@H](O[C@@H]6O[C@H](C(=O)O)[C@@H](O)[C@H](O)[C@H]6O)C(C)(C)[C@@H]5CC[C@]43C)[C@@H]2C1 [E, calenduloside E]
- IC50 (B16F10 melanoma cells): 2.58 mg/L (≈ 4.08 µM)
- tumour inhibition rate (B16F10 melanoma tumour; 5 mg/kg intraperitoneal): 85.4%
- mean tumour weight (B16F10 melanoma tumour; 5 mg/kg intraperitoneal): 0.22 g
- tumour growth (tumour volume) (B16F10 melanoma tumour): significantly suppressed tumour growth
- HUVEC tube formation [3, 5]: markedly inhibited

Compound: CC1(C)CC[C@]2(C(=O)O[C@@H]3O[C@H](CO)[C@@H](O)[C@H](O)[C@H]3O)CC[C@]3(C)C(=CC[C@@H]4[C@@]5(C)CC[C@H](O[C@@H]6O[C@H](C(=O)O)[C@@H](O)[C@H](O)[C@H]6O[C@@H]6O[C@H](CO)[C@@H](O)[C@H](O)[C@H]6O)C(C)(C)[C@@H]5CC[C@]43C)[C@@H]2C1 [Ro, ginsenoside Ro]
- effect on B16F10 cell growth in vitro (B16F10 melanoma cells; 0, 1, 3, 10, 30, 100 μg/mL): little effect
- hemolysis at 60 min, 1 μg/mL (Haemolysis test; 1 μg/mL): 0.15 ± 0.13%
- hemolysis at 60 min, 3 μg/mL (Haemolysis test; 3 μg/mL): 0.31 ± 0.13%
- hemolysis at 60 min, 10 μg/mL (Haemolysis test; 10 μg/mL): 0.23 ± 0.23%
- hemolysis at 60 min, 30 μg/mL (Haemolysis test; 30 μg/mL): 0.15 ± 0.13%
- hemolysis at 60 min, 100 μg/mL (Haemolysis test; 100 μg/mL): 0.31 ± 0.35%
- haemolysis ratio (HR%) (erythrocytes): less than 5%
- tumour inhibition rate (B16F10 melanoma tumour; 25 mg/kg intraperitoneal): 75.7%
- HUVEC tube formation ([3]; 100 μg/mL, 5 h): stimulated tube formation
- HUVEC tube formation ([3]; 1–30 μg/mL, 5 h): no effects
- Organ Indices Spleen ([2]; mouse, in vivo): 3.54 ± 1.03 ×100, mg/g
- Organ Indices Thymus ([2]; mouse, in vivo): 1.67 ± 0.25 ×100, mg/g
- Weight (g) After ([2]; mouse, in vivo): 24.73 ± 1.43 g
- Weight (g) Before ([2]; mouse, in vivo): 22.91 ± 1.12 g

Compound: CC1(C)CC[C@]2(C(=O)O)CC[C@]3(C)C(=CC[C@@H]4[C@@]5(C)CC[C@H](O)C(C)(C)[C@@H]5CC[C@]43C)[C@@H]2C1 [OA, oleanolic acid, reference compound]
- detection in plasma of Ro-treated tumour-bearing mice [1]: not detected
